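Assay format: 96-well plates, 48-hour exposure. GI50: concentration for 50% inhibition of growth.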 The source made the active and inactive calls. Cut-off read from the data, not from the text of the source: active = GI50 up to about 1.1 µM and inactive = higher.
Columns and labels:
Test in all cases: NCI anticancer screen, dose series, 48 h
SF-539 = system: SF-539
UO-31 = system: UO-31
MOLT-4 = system: MOLT-4
OVCAR-5 = system: OVCAR-5
SK-MEL-2 = system: SK-MEL-2
UACC-257 = system: UACC-257
EKVX = system: EKVX
HL-60 = system: HL-60
SK-MEL-28 = system: SK-MEL-28
SNB-19 = system: SNB-19
SN12C = system: SN12C
IGROV-1 = system: IGROV-1
U-251 = system: U-251
SR = system: SR
HT-29 = system: HT-29
M14 = system: M14
OVCAR-4 = system: OVCAR-4
HOP-62 = system: HOP-62

Row | Structure (SMILES) | GI50 (SF-539) | GI50 (UO-31) | GI50 (MOLT-4) | GI50 (OVCAR-5) | GI50 (SK-MEL-2) | GI50 (UACC-257) | GI50 (EKVX) | GI50 (HL-60) | GI50 (SK-MEL-28) | GI50 (SNB-19) | GI50 (SN12C) | GI50 (IGROV-1) | GI50 (U-251) | GI50 (SR) | GI50 (HT-29) | GI50 (M14) | GI50 (OVCAR-4) | GI50 (HOP-62)
1 | N#CCCC[Si]12OCCN(CCO1)CCO2 | > 100 µM (inactive) | > 100 µM (inactive) | > 100 µM (inactive) | > 100 µM (inactive) | > 100 µM (inactive) | > 100 µM (inactive) | > 100 µM (inactive) | > 100 µM (inactive) | > 100 µM (inactive) | > 100 µM (inactive) | > 100 µM (inactive) | > 100 µM (inactive) | > 100 µM (inactive) | > 100 µM (inactive) | > 100 µM (inactive) | – | – | –
2 | CC(=O)OCC1OC(OCc2ccccc2)C(Br)C(OC(C)=O)C1OC(C)=O (stereo unspecified) | > 100 µM (inactive) | – | > 100 µM (inactive) | > 100 µM (inactive) | – | > 100 µM (inactive) | – | > 100 µM (inactive) | > 100 µM (inactive) | > 100 µM (inactive) | > 100 µM (inactive) | > 100 µM (inactive) | > 100 µM (inactive) | > 100 µM (inactive) | > 100 µM (inactive) | > 100 µM (inactive) | > 100 µM (inactive) | > 100 µM (inactive)
3 | CC(CN(C)C)/C(=N\Nc1ccccc1)c1ccccc1 (stereo unspecified) | 0.272 µM (active) | 1.13 µM (inactive) | 0.184 µM (active) | 1.38 µM (inactive) | – | 2.12 µM (inactive) | 1.3 µM (inactive) | 0.419 µM (active) | 2.02 µM (inactive) | 3.72 µM (inactive) | 3.19 µM (inactive) | 2.09 µM (inactive) | 1.07 µM (active) | 0.33 µM (active) | 2.08 µM (inactive) | 1.46 µM (inactive) | 0.794 µM (active) | 0.767 µM (active)
4 | COc1ccc(S(=O)(=O)N/N=C\c2cc([N+](=O)[O-])cc(I)c2O)c(OC)c1OC | – | 18.5 µM (inactive) | 25.1 µM (inactive) | 32.4 µM (inactive) | 21.4 µM (inactive) | 26.7 µM (inactive) | 29.9 µM (inactive) | 26.6 µM (inactive) | 24.5 µM (inactive) | 21.1 µM (inactive) | 31.5 µM (inactive) | 32 µM (inactive) | 25.3 µM (inactive) | – | 32.2 µM (inactive) | 28.4 µM (inactive) | 28.4 µM (inactive) | –
5 | O=C(Nc1ccc(Cl)cc1Cl)C(=O)C(C(=O)c1ccc2ccccc2c1)C1OC(=O)c2ccccc21 (stereo unspecified) | 2.68 µM (inactive) | 11.4 µM (inactive) | – | 4.65 µM (inactive) | 13.7 µM (inactive) | 12.6 µM (inactive) | 15.9 µM (inactive) | 2.96 µM (inactive) | 3.48 µM (inactive) | 5.78 µM (inactive) | 11.7 µM (inactive) | 13.6 µM (inactive) | 2.51 µM (inactive) | – | 15.7 µM (inactive) | 13.4 µM (inactive) | 10.1 µM (inactive) | 11.9 µM (inactive)
6 | Cc1cccc(NC(=O)CC#N)c1Cl | > 100 µM (inactive) | 99.3 µM (inactive) | > 100 µM (inactive) | – | > 100 µM (inactive) | > 100 µM (inactive) | > 100 µM (inactive) | > 100 µM (inactive) | > 100 µM (inactive) | > 100 µM (inactive) | > 100 µM (inactive) | > 100 µM (inactive) | > 100 µM (inactive) | > 100 µM (inactive) | > 100 µM (inactive) | > 100 µM (inactive) | – | –
7 | Cc1ccc([N+]2=NC(c3ccc([N+](=O)[O-])cc3)=NN(c3ccccc3)C2)cc1 | – | 86.7 µM (inactive) | 21 µM (inactive) | > 100 µM (inactive) | – | 47.1 µM (inactive) | 43.7 µM (inactive) | 61.7 µM (inactive) | > 100 µM (inactive) | 75.3 µM (inactive) | > 100 µM (inactive) | 94.4 µM (inactive) | 72.8 µM (inactive) | 46.7 µM (inactive) | 57.9 µM (inactive) | – | 17.6 µM (inactive) | > 100 µM (inactive)
8 | Clc1ccccc1C(n1cc(Br)cn1)n1cc(Br)cn1 | > 10 µM (inactive) | 12.6 µM (inactive) | 14.2 µM (inactive) | 11.4 µM (inactive) | 18.2 µM (inactive) | 14.7 µM (inactive) | – | 14.7 µM (inactive) | 40.7 µM (inactive) | 27.4 µM (inactive) | 16.3 µM (inactive) | > 10 µM (inactive) | 18.5 µM (inactive) | 18.8 µM (inactive) | 13.8 µM (inactive) | 16.3 µM (inactive) | > 100 µM (inactive) | 25.5 µM (inactive)
9 | O=C1Cc2ccccc2CCc2ccsc21 | > 100 µM (inactive) | > 100 µM (inactive) | > 100 µM (inactive) | 31.3 µM (inactive) | > 100 µM (inactive) | > 100 µM (inactive) | > 100 µM (inactive) | 92.3 µM (inactive) | > 100 µM (inactive) | > 100 µM (inactive) | > 100 µM (inactive) | > 100 µM (inactive) | > 100 µM (inactive) | > 100 µM (inactive) | > 100 µM (inactive) | > 100 µM (inactive) | > 100 µM (inactive) | –
10 | CC1=C(C(=O)Nc2ccccc2C)C(c2ccc([N+](=O)[O-])cc2)C(C(=O)Nc2ccccc2C)=C(C)N1 | 53.6 µM (inactive) | 20.5 µM (inactive) | 25.3 µM (inactive) | > 100 µM (inactive) | 38.2 µM (inactive) | 55.3 µM (inactive) | > 100 µM (inactive) | 19.8 µM (inactive) | 63.4 µM (inactive) | 22.8 µM (inactive) | 76.7 µM (inactive) | 78 µM (inactive) | > 100 µM (inactive) | – | 44.9 µM (inactive) | 39.9 µM (inactive) | 41.8 µM (inactive) | > 100 µM (inactive)
11 | CC(=O)Nc1ccc2c(c1)C(=O)c1ccccc1-2 | > 100 µM (inactive) | > 100 µM (inactive) | > 100 µM (inactive) | – | – | > 100 µM (inactive) | > 100 µM (inactive) | > 100 µM (inactive) | > 100 µM (inactive) | > 100 µM (inactive) | > 100 µM (inactive) | > 100 µM (inactive) | > 100 µM (inactive) | > 100 µM (inactive) | > 100 µM (inactive) | > 100 µM (inactive) | – | > 100 µM (inactive)
12 | CCN(CC)CCOC(=O)/C(=C/c1ccc(OC)cc1)c1cc(OC)c(OC)c(OC)c1 | 3.28 µM (inactive) | 5.13 µM (inactive) | 24.5 µM (inactive) | 16.4 µM (inactive) | – | 5.46 µM (inactive) | 31.5 µM (inactive) | 3.3 µM (inactive) | 6.08 µM (inactive) | 13.4 µM (inactive) | 16.1 µM (inactive) | 6.01 µM (inactive) | 4.06 µM (inactive) | – | 1.92 µM (inactive) | 6.43 µM (inactive) | 31.4 µM (inactive) | 3.8 µM (inactive)
13 | CC(=O)CC(=O)CCCC(=O)Nc1ccc(Cl)cc1Cl | > 100 µM (inactive) | > 100 µM (inactive) | > 100 µM (inactive) | > 100 µM (inactive) | > 100 µM (inactive) | > 100 µM (inactive) | – | > 100 µM (inactive) | > 100 µM (inactive) | > 100 µM (inactive) | > 100 µM (inactive) | > 100 µM (inactive) | – | > 100 µM (inactive) | > 100 µM (inactive) | > 100 µM (inactive) | > 100 µM (inactive) | > 100 µM (inactive)
14 | Cc1cc(C)nc(NS(=O)(=O)c2ccc(NC(=O)c3cccc4c(N)c5ccccc5nc34)cc2)n1 | 31.6 µM (inactive) | > 100 µM (inactive) | 35 µM (inactive) | > 100 µM (inactive) | > 100 µM (inactive) | > 100 µM (inactive) | > 100 µM (inactive) | – | > 100 µM (inactive) | > 100 µM (inactive) | > 100 µM (inactive) | > 100 µM (inactive) | 97.5 µM (inactive) | – | – | > 100 µM (inactive) | > 100 µM (inactive) | > 100 µM (inactive)
15 | O=C(Nc1nc2ccc([N+](=O)[O-])cc2s1)C(=O)C(C(=O)c1ccncc1)C1OC(=O)c2ccccc21 (stereo unspecified) | – | – | > 100 µM (inactive) | > 100 µM (inactive) | – | > 100 µM (inactive) | 92.5 µM (inactive) | > 100 µM (inactive) | – | > 100 µM (inactive) | > 100 µM (inactive) | > 100 µM (inactive) | > 100 µM (inactive) | > 100 µM (inactive) | > 100 µM (inactive) | > 100 µM (inactive) | > 100 µM (inactive) | > 100 µM (inactive)
16 | COc1cc([C@@H]2OC(=O)C3C2C(=O)O[C@H]3c2cc(OC)c(OC)c(OC)c2)cc(OC)c1OC (stereo partly specified) | > 100 µM (inactive) | > 100 µM (inactive) | > 100 µM (inactive) | – | > 100 µM (inactive) | > 100 µM (inactive) | > 100 µM (inactive) | > 100 µM (inactive) | > 100 µM (inactive) | > 100 µM (inactive) | > 100 µM (inactive) | > 100 µM (inactive) | > 100 µM (inactive) | – | > 100 µM (inactive) | > 100 µM (inactive) | > 100 µM (inactive) | > 100 µM (inactive)
17 | Cc1ccc(S(=O)(=O)CC(=O)CC(=O)C(=O)Nc2cccc(C(F)(F)F)c2)cc1 | > 100 µM (inactive) | > 100 µM (inactive) | > 100 µM (inactive) | – | > 100 µM (inactive) | > 100 µM (inactive) | > 100 µM (inactive) | 97.1 µM (inactive) | > 100 µM (inactive) | > 100 µM (inactive) | > 100 µM (inactive) | > 100 µM (inactive) | > 100 µM (inactive) | > 100 µM (inactive) | 55.3 µM (inactive) | > 100 µM (inactive) | – | –

Source: ChEMBL document CHEMBL1201862, “PubChem BioAssay data set” (2004)
